Like-named read-outs stand apart in the source and are kept apart here.
Experiments:
[1] = target: T1, full-length beta-Catenin (Uniprot ID P35222) (Homo sapiens, UniProt P35222); experiment: Fluorescence polarization IC50 (beta-catenin / 5FAM-TCF4 10-53 competition); assay type: binding; conditions: fluorescence polarization; read-out: beta-Catenin FP IC50
T1 construct: 10 nM full-length beta-Catenin (Uniprot ID P35222)
T1 sequence (P35222 1-781): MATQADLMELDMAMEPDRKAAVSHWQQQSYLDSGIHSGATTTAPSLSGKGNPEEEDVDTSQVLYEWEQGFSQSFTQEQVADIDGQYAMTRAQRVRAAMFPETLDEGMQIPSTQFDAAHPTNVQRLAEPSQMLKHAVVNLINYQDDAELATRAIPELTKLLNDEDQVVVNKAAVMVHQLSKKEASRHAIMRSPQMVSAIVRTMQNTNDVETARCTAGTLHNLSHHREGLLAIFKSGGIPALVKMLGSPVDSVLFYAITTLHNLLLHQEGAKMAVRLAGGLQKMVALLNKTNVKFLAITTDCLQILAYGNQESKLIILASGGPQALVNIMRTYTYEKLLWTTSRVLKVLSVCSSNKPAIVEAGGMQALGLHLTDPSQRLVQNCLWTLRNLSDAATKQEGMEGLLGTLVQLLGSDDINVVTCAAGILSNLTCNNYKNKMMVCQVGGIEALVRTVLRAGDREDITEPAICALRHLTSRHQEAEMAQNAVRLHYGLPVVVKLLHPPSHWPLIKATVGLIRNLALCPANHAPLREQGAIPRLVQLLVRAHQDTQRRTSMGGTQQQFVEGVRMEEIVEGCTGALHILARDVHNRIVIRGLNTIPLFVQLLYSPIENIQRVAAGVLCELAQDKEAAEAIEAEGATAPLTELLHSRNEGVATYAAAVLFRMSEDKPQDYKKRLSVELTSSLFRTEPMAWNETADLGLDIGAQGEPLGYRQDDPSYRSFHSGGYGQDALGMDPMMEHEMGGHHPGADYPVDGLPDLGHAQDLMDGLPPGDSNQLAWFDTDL

[2] = target: T2, beta-catenin/TCF4 engagement (Homo sapiens, UniProt P35222); experiment: Nano-BRET target engagement assay (B-cat-Halo & TCF4-Luc in HEK293 cells); assay type: cell-based; conditions: read-out: NanoBRET Abs IC50
T2 construct: expressed in transfected cells; host or cells: HEK293
T2 sequence (P35222 1-781): T1 sequence (P35222 1-781)

SMILES	IC50 [1] [nM]	IC50 ([2]; absolute IC50) [nM]	IC50 [2] [nM]
CCCC[C@@H]1NC(=O)[C@H](CC(=O)O)NC(=O)[C@]2(CC=CCCCC3(CCCC=CCCCCCC[C@@](C)(C(=O)N[C@@H](Cc4ccccc4)C(=O)N[C@@H](Cc4csc5ccccc45)C(=O)N[C@@H](CCC(N)=O)C(N)=O)NC(=O)[C@H](CC(C)C)NC(=O)[C@H](Cc4ccccc4)NC(=O)[C@H](C)NC(=O)[C@H](C)NC(=O)[C@H](CCC(=O)O)NC(=O)[C@H](CC(=O)O)NC3=O)NC1=O)CCCN2C(C)=O (stereo partly drawn) [I-1523, Ac-PL3-Asp-nLeu-B5-Asp-Glu-Ala-Ala-Phe-Leu-S8-Phe-BztA-Gln-NH2]	29	8000	
CCCCCCSSCCOC(=O)C[C@@H]1NC(=O)C2(CCCC=CCCCOC(=O)N3CC[C@@](C(=O)N[C@@H](Cc4ccsc4)C(=O)N[C@@H](Cc4csc5ccccc45)C(=O)N[C@@H](CCC(N)=O)C(N)=O)(C3)NC(=O)[C@H](CC(C)C)NC(=O)[C@H](Cc3ccccc3)NC(=O)[C@H](C)NC(=O)[C@H](C)NC(=O)[C@H](CC(=O)O)NC1=O)CCCC=CC[C@]1(CCCN1C(C)=O)C(=O)N[C@@H](CC(=O)O)C(=O)N[C@@H](CC(C)(C)C)C(=O)N2 (stereo partly drawn) [I-1961, Ac-PL3-Asp-Npg-B5-[EtSSHex]AspE-Asp-Ala-Ala-Phe-Leu-PyrS2-3Thi-BztA-Gln-NH2]	2100		> 20000
CC(=O)N1CCC[C@]12CC=CCCCC1(CCCC=CCCCOC(=O)N3CC[C@@](C(=O)N[C@@H](Cc4ccccc4Cl)C(=O)N[C@@H](Cc4csc5ccccc45)C(=O)N[C@@H](CCC(N)=O)C(N)=O)(C3)NC(=O)[C@H](CC(N)=O)NC(=O)[C@H](Cc3ccccc3)NC(=O)[C@H](C)NC(=O)[C@H](C)NC(=O)[C@H](CC(=O)O)NC(=O)[C@H](CC(=O)O)NC1=O)NC(=O)[C@H](CC(C)(C)C)NC(=O)[C@H](CC(=O)S)NC2=O (stereo partly drawn) [I-1722, Ac-PL3-AspSH-Npg-B5-Asp-Asp-Ala-Ala-Phe-Asn-PyrS2-2C1F-BztA-Gln-NH2]	135	> 20000	
CC(=O)N1CCC[C@]12CCCC[C@@](C)(C(=O)N[C@@H](CC(=O)O)C(=O)N[C@@H](CC(=O)O)C(=O)N[C@@H](C)C(=O)N[C@@H](C)C(=O)N[C@@H](Cc1ccccc1)C(=O)N[C@@H](CC(C)C)C(=O)NC(C)(C)C(=O)N[C@@H](Cc1ccsc1)C(=O)N[C@@H](Cc1csc3ccccc13)C(=O)N[C@@H](CCC(N)=O)C(N)=O)NC(=O)[C@H](CC(C)(C)C)NC(=O)[C@H](CC(=O)O)NC2=O [I-1983, Ac-PL3-Asp-Npg-S3-Asp-Asp-Ala-Ala-Phe-Leu-Aib-3Thi-BztA-Gln-NH2]	186		> 20000
CC(=O)N1CCC[C@]12CC=CCCCC1(CCCC=CCCCOC(=O)N3CC[C@@](C(=O)N[C@@H](Cc4ccsc4)C(=O)N[C@@H](Cc4csc5ccccc45)C(=O)N[C@@H](CCC(N)=O)C(N)=O)(C3)NC(=O)[C@H](CCO)NC(=O)[C@H](Cc3ccccc3)NC(=O)[C@H](C)NC(=O)[C@H](C)NC(=O)[C@H](Cc3ccc(O)cc3)NC(=O)[C@H](CC(=O)O)NC1=O)NC(=O)[C@H](CC(C)(C)C)NC(=O)[C@H](CC(=O)O)NC2=O (stereo partly drawn) [I-1783, Ac-PL3-Asp-Npg-B5-Asp-Tyr-Ala-Ala-Phe-Hse-PyrS2-3Thi-BztA-Gln-NH2]	101	> 20000	
CC(=O)N1CCC[C@]12CC=CCCCC1(CCCC=CCCCOC(=O)N3CC[C@@](C(=O)N[C@@H](Cc4ccsc4)C(=O)N[C@@H](Cc4csc5ccccc45)C(=O)N[C@@H](C)C(N)=O)(C3)NC(=O)[C@H](CC(C)C)NC(=O)[C@H](Cc3ccccc3)NC(=O)[C@H](C)NC(=O)[C@H](CCS(C)(=O)=O)NC(=O)[C@H](Cc3cccc(C(=O)O)c3)NC(=O)[C@H](CC(=O)O)NC1=O)NC(=O)[C@H](CC(C)(C)C)NC(=O)[C@H](CC(=O)O)NC2=O (stereo partly drawn) [I-2064, Ac-PL3-Asp-Npg-B5-Asp-3COOHF-Met2O-Ala-Phe-Leu-PyrS2-3Thi-BztA-Ala-NH2]	16		11800
CC(=O)N1CCC[C@]12CC=CCCCC1(CCCC=CCCCOC(=O)N3CC[C@@](C(=O)N[C@@H](Cc4ccsc4)C(=O)N[C@@H](Cc4csc5ccccc45)C(=O)N[C@@H](CCC(N)=O)C(N)=O)(C3)NC(=O)[C@H](CC(C)C)NC(=O)[C@H](Cc3ccccc3)NC(=O)[C@H](C)NC(=O)[C@H](C)NC(=O)[C@H](CC(=O)O)NC(=O)[C@H](CC(=O)O)NC1=O)NC(=O)[C@H](CC(N)=O)NC(=O)[C@H](CC(=O)O)NC2=O (stereo partly drawn) [I-1517, Ac-PL3-Asp-Asn-B5-Asp-Asp-Ala-Ala-Phe-Leu-PyrS2-3Thi-BztA-Gln-NH2]	32	> 20000	

The next molecules have a lower IC50 [1] than those just listed; values first:

IC50 [1] [nM]	IC50 ([2]; absolute IC50) [nM]	IC50 [2] [nM]	SMILES
15	6400		CC(=O)N1CCC[C@]12CC=CCCCC1(CCCC=CCCCOC(=O)N3CC[C@@](C(=O)N[C@@H](Cc4ccccc4C(F)(F)F)C(=O)N[C@@H](Cc4csc5ccccc45)C(=O)N[C@@H](CC(=O)N4CCOCC4)C(N)=O)(C3)NC(=O)[C@H](CC(C)C)NC(=O)[C@H](Cc3ccccc3)NC(=O)[C@H](C)NC(=O)[C@H](C)NC(=O)[C@H](Cc3cccc(C(=O)O)c3)NC(=O)[C@H](CC(=O)O)NC1=O)NC(=O)[C@H](CC(C)(C)C)NC(=O)[C@H](CC(=O)O)NC2=O (stereo partly drawn) [I-1614, Ac-PL3-Asp-Npg-B5-Asp-3COOHF-Ala-Ala-Phe-Leu-PyrS2-2F3MeF-BztA-MorphAsn-NH2]
15	5700		CC(=O)N1CCC[C@]12CC=CCCCC1(CCCC=CCCCOC(=O)N3CC[C@@](C(=O)N[C@@H](Cc4ccccc4C(F)(F)F)C(=O)N[C@@H](Cc4ccc(C)c(C)c4)C(=O)N[C@@H](CO)C(N)=O)(C3)NC(=O)[C@H](CC(C)C)NC(=O)[C@H](Cc3ccccc3)NC(=O)[C@H](C)NC(=O)[C@H](C)NC(=O)[C@H](Cc3cccc(C(=O)O)c3)NC(=O)[C@H](CC(=O)O)NC1=O)NC(=O)[C@H](CC(C)(C)C)NC(=O)[C@H](CC(=O)O)NC2=O (stereo partly drawn) [I-2293, Ac-PL3-Asp-Npg-B5-Asp-3COOHF-Ala-Ala-Phe-Leu-PyrS2-2F3MeF-34MeF-Ser-NH2]
9	16500		CC(=O)N1CCC[C@]12CC=CCCCC1(CCCC=CCCCOC(=O)N3CC[C@@](C(=O)N[C@@H](Cc4ccsc4)C(=O)N[C@@H](Cc4csc5ccccc45)C(=O)N[C@@H](CCC(N)=O)C(N)=O)(C3)NC(=O)[C@H](CC(N)=O)NC(=O)[C@H](Cc3ccccc3)NC(=O)[C@H](C)NC(=O)[C@H](C)NC(=O)[C@H](CN(CCCC(F)(F)F)CC(=O)O)NC(=O)[C@H](CC(=O)O)NC1=O)NC(=O)[C@H](CC(C)(C)C)NC(=O)[C@H](CC(=O)O)NC2=O (stereo partly drawn) [I-1634, Ac-PL3-Asp-Npg-B5-Asp-[Tfb]GA-Ala-Ala-Phe-Asn-PyrS2-3Thi-BztA-Gln-NH2]
11	4100		CC(=O)N1CCC[C@]12CC=CCCCC1(CCCC=CCCCOC(=O)N3CC[C@@](C(=O)N[C@@H](Cc4ccccc4C(F)(F)F)C(=O)N[C@@H](Cc4csc5ccccc45)C(=O)N[C@@H](CCC(=O)N4CCOCC4)C(N)=O)(C3)NC(=O)[C@H](CCC(=O)N(C)C)NC(=O)[C@H](Cc3ccccc3)NC(=O)[C@H](C)NC(=O)[C@H](C)NC(=O)[C@H](Cc3cccc(C(=O)O)c3)NC(=O)[C@H](CC(=O)O)NC1=O)NC(=O)[C@H](CC(C)(C)C)NC(=O)[C@H](CC(=O)O)NC2=O (stereo partly drawn) [I-2544, Ac-PL3-Asp-Npg-B5-Asp-3COOHF-Ala-Ala-Phe-Me2Gln-PyrS2-2F3MeF-BztA-MorphGln-NH2]
13	18300		CC(=O)N1CCC[C@]12CC=CCCCC1(CCCC=CCCCCCC[C@@](C)(C(=O)N[C@@H](Cc3cccs3)C(=O)N[C@@H](Cc3csc4ccccc34)C(=O)N[C@@H](CCC(N)=O)C(N)=O)NC(=O)[C@H](CCO)NC(=O)[C@H](Cc3ccccc3)NC(=O)[C@H](C)NC(=O)[C@H](C)NC(=O)[C@H](CC(=O)O)NC(=O)[C@H](CC(=O)O)NC1=O)NC(=O)[C@H](CC(C)(C)C)NC(=O)[C@H](CC(=O)O)NC2=O (stereo partly drawn) [I-1392, Ac-PL3-Asp-Npg-B5-Asp-Asp-Ala-Ala-Phe-Hse-S8-2Thi-BztA-Gln-NH2]
13	17400		CC(=O)N1CCC[C@]12CC=CCCCC1(CCCC=CCCCOC(=O)N3CC[C@@](C(=O)N[C@@H](Cc4ccsc4)C(=O)N[C@@H](Cc4csc5ccccc45)C(=O)N[C@@H](CCC(N)=O)C(N)=O)(C3)NC(=O)[C@H](CC(C)C)NC(=O)[C@H](Cc3ccccc3)NC(=O)[C@H](C)NC(=O)[C@H](C)NC(=O)[C@H](CC(=O)O)NC(=O)[C@H](CC(=O)O)NC1=O)NC(=O)[C@H](CC(C)C)NC(=O)[C@H](CC(=O)O)NC2=O (stereo partly drawn) [I-1399, Ac-PL3-Asp-Leu-B5-Asp-Asp-Ala-Ala-Phe-Leu-PyrS2-3Thi-BztA-Gln-NH2]
15	2900		CC(=O)N1CCC[C@]12CC=CCCCC1(CCCC=CCCCOC(=O)N3CC[C@@](C(=O)N[C@@H](Cc4ccsc4)C(=O)N[C@@H](Cc4csc5ccccc45)C(=O)N[C@@H](C)C(N)=O)(C3)NC(=O)[C@H](CC(C)C)NC(=O)[C@H](Cc3ccccc3)NC(=O)[C@H](C)NC(=O)[C@H](C)NC(=O)[C@H](Cc3cccc(C(=O)O)c3)NC(=O)[C@H](CC(=O)O)NC1=O)NC(=O)[C@H](CC(C)(C)C)NC(=O)[C@H](CC(=O)O)NC2=O (stereo partly drawn) [I-2257, Ac-PL3-Asp-Npg-B5-Asp-3COOHF-Ala-Ala-Phe-Leu-PyrS2-3Thi-BztA-Ala-NH2]

— patent publication US20240116985A1, “STAPLED PEPTIDES AND METHODS THEREOF” (priority 2020, published 2024)
